One data set deals with colon HT115 xenograft. Nature of the data set: Mouse xenograft of human cancer, colon tumour volume. It counts as in vivo. Particulars: for reducing colon tumour volume relative to control: daily dosing, CPF31 at 5 and 10 μM (3 and 6 μg/ml), gemcitabine at highest non-toxic concentration.
Data set [1] deals with human colon cancer cell line (HT115). Nature of the data set: MTT cytotoxicity assay, colon cancer cell line. It counts as cell-based. Particulars: for EC50: Homo sapiens, HT115, read-out: EC50/μM Colon HT115, MTT assay, compounds added to cells over 1 to 3 days; for concentration found to be active in vitro, colon cell line: same colon cell line (HT115). On the procedure: (§1) The compounds include those whose preparations are described above and compounds made by preparative methods corresponding to the methods described above.
(§2) Compounds were diluted over a range of concentrations and added to cells over 1 to 3 days. The cytotoxity was determined using a MTT assay at the end of each experiment.
On the technique in general: Tetrazolium assays rely on reduction of a dye to a coloured formazan, in cell work by metabolically active cells.

Data set [2] deals with human prostate cancer cell line (PC-3). Nature of the data set: MTT cytotoxicity assay, prostate cancer cell line. It counts as cell-based. Particulars: Homo sapiens, read-out: EC50/μM Prostate PC-3. On the procedure:
as §1, §2

The conditions of data set [3]: in vivo, 13 day.
Description: (§3) Mice were dosed daily at a range of concentrations (0.01-10 μM) and tumour volume assessed versus control.
(§4) Kaplan-Meier statistics were computed regarding incident-free survival.
The next data set deals with prostrate PC3 xenograft. Nature of the data set: Mouse xenograft of human cancer, prostate tumour volume. It counts as in vivo. Particulars: daily dosing, CPF31 at 5 and 10 μM (3 and 6 μg/ml), gemcitabine at highest non-toxic concentration. In general terms: Xenograft models place foreign cells or tissue in a host animal.
The subject of data set [4] is human breast cancer cell line (MDA MB 231). Nature of the data set: MTT cytotoxicity assay, breast cancer cell line. It counts as cell-based. Particulars: Homo sapiens, MDA-MB-231, read-out: EC50/μM Breast MDA MB231. On the procedure: as §1, §2
The nature of data set [5]: Toxicity in mouse xenograft model (body mass loss, incident-free survival).
Description: as §3, §4
In another data set the test system is HIV-1. Particulars: cited from earlier work; for EC50: d4T phosphoramidates, prior art, read-out: 50% effective doses vs HIV-1.

“Also recorded” adds a separate entry of the source.

Description for colon HT115 xenograft: as §3
Description for prostrate PC3 xenograft: as §3

As for `Nc1ccn([C@@H]2O[C@H](CO)[C@@H](O)C2(F)F)c(=O)n1` [Example G, gemcitabine, reference compound], the “reducing colon tumour volume relative to control” value with colon HT115 xenograft was “not effective”. Also, the EC50 in data set [1] was 606 µM; in data set [2], 3.12 µM; in data set [4], 2.8 µM. The “concentration found to be active in vitro, colon cell line” value in data set [1] was 600 µM. The “toxic concentration in mouse xenograft (FIG. 1)” value in data set [3] is listed as “above 1 μM”. Also, the “reducing prostate tumour volume relative to control” value in the data set with prostrate PC3 xenograft is “not effective”.

Turning to `C[C@H](NP(=O)(OC[C@H]1O[C@@H](n2ccc(N)nc2=O)C(F)(F)C1O)Oc1ccccc1)C(=O)OCc1ccccc1` (stereo partly drawn) [Example 31, Gemcitabine-[phenyl-(benzoxy-L-alaninyl)]-phosphate], in the data set with colon HT115 xenograft (5 μM, day 24, versus Gemzar), the “activity in reducing colon tumour volume in vivo at 5 μM (FIG. 4)” value is given as “greater activity”. For the same compound, the “reducing colon tumour volume relative to control” value with colon HT115 xenograft was “significantly effective”. Also, the EC50 in data set [1] was 5.7 µM; in data set [2], 0.22 µM; in data set [4], 42.6 µM. Besides, in data set [1], the “concentration found to be active in vitro, colon cell line” value came out at 5 µM. The “animals showing serious toxicity (10% body mass loss), day 10” value in data set [5] (5 and 10 μM groups combined, day 10) worked out at 3 animals. In data set [5] (5 and 10 μM groups combined, day 11), the “animals showing serious toxicity (10% body mass loss), day 11, collectively” value was 1 animals. In addition, the “animals showing serious toxicity (10% body mass loss), day 13” value in data set [5] (5 and 10 μM groups combined, day 13) worked out at 1 animals. Also, the “toxicity compared with gemcitabine (Gemzar, GMZ)” value in data set [5] (mouse xenograft, weight loss based, Kaplan-Meier / Cox analysis, listed as CPF31) is reported as “significantly less toxic; also recorded: substantially lower toxicity; also recorded: far less toxic”. Besides, the “reducing prostate tumour volume relative to control” value in the data set on prostrate PC3 xenograft was “significantly effective”.

With `COC(=O)C(C)NP(=O)(OCC1C=CC(n2cc(C)c(=O)[nH]c2=O)O1)Oc1ccc(C(F)(F)F)cc1` (stereo not shown) [(13)], in the data set on HIV-1, the EC50 was 0.01 µM.

Take `Cc1cn(C2C=CC(COP(=O)(NC(C)C(=O)OCc3ccccc3)Oc3ccccc3)O2)c(=O)[nH]c1=O` (stereo not shown) [(10)]: the “potency boost of (10) over (9)” value in the data set on HIV-1 (equivalent phosphoramidates of d4T, McGuigan et al, AVCC, 1998) is listed as ~4 fold.

For `COC(=O)C(C)NP(=O)(OCC1C=CC(n2cc(C)c(=O)[nH]c2=O)O1)Oc1ccccc1` (stereo not shown) [(9)], the EC50 in the data set on HIV-1 is 0.075 µM.

In the case of `COC(=O)C1(NP(=O)(OC[C@H]2O[C@@H](n3cc(/C=C/Br)c(=O)[nH]c3=O)CC2O)Oc2ccc([N+](=O)[O-])cc2)CCCC1` (stereo partly drawn) [Example 19, (E)-5-(2-Bromovinyl)-2′-deoxyuridine-5′-[para-nitrophenyl-(methoxy-α,α-cycloleucinyl)]-phosphate], the EC50 in data set [1] was 38.2 µM; in data set [2], 88 µM; in data set [4], 56 µM.

Consider `COC(=O)C(C)(C)NP(=O)(OCC1C=CC(n2cc(C)c(=O)[nH]c2=O)O1)Oc1ccccc1` (stereo not shown) [(12)], for which, in the data set on HIV-1, the EC50 was 0.29 µM.

As to `CCOC(=O)C1(NP(=O)(OC[C@H]2O[C@@H](n3cc(/C=C/Br)c(=O)[nH]c3=O)CC2O)Oc2ccc([N+](=O)[O-])cc2)CCCC1` (stereo partly drawn) [Example 20, (E)-5-(2-Bromovinyl)-2′-deoxyuridine-5′-[para-nitrophenyl-(ethoxy-α,α-cycloleucinyl)]-phosphate], the EC50 is 57.3 µM in data set [1], 15 µM in data set [2] and 13 µM in data set [4].

Turning to `COC(=O)C1(NP(=O)(OC[C@H]2O[C@@H](n3cc(/C=C/Br)c(=O)[nH]c3=O)CC2O)Oc2ccc(Cl)cc2)CCCC1` (stereo partly drawn) [Example 32, (E)-5-(2-Bromovinyl)-2′-deoxyuridine-5′-[para-chlorophenyl-(methoxy-α,α-cycloleucinyl)]-phosphate], the EC50 in data set [1] was found to be 99.3 µM; in data set [2], 52.2 µM; in data set [4], 2.6 µM.

The values above are taken from patent publication USRE47589E1, “Phosphoramidate compounds and methods of use” (NuCana plc, priority 2003, dated 2019).
